Experimental data: article PMC7385619, “A triple action CDK4/6-PI3K-BET inhibitor with augmented cancer cell cytotoxicity” (Cell Discovery, 2020)

Assays:
Experiment in all cases: KINOMEscan assay (Eurofins DiscoverX)
Format in all cases: binding
kinome (kinase panel) [1] = target: T1, kinome (kinase panel) (Homo sapiens, UniProt Q9H2X6); conditions: HIPK2; 1000 nM; read-out: Percent Control
T1 construct: purchased Eurofins DiscoverX

kinome (kinase panel) [2] = target: T2, kinome (kinase panel) (Homo sapiens, UniProt Q16620); conditions: TRKB (NTRK2); 1000 nM; read-out: Percent Control
T2 construct: purchased Eurofins DiscoverX

kinome (kinase panel) [3] = target: T3, kinome (kinase panel) (Homo sapiens, UniProt Q9Y243); conditions: AKT3; 1000 nM; read-out: Percent Control
T3 construct: purchased Eurofins DiscoverX

kinome (kinase panel) [4] = target: T4, kinome (kinase panel) (Homo sapiens, UniProt P22607); conditions: FGFR3; 1000 nM; read-out: Percent Control
T4 construct: purchased Eurofins DiscoverX

kinome (kinase panel) [5] = target: T5, kinome (kinase panel) (Homo sapiens, UniProt Q13163); conditions: MEK5 (Entrez MAP2K5); 1000 nM; read-out: Percent Control
T5 construct: purchased Eurofins DiscoverX

kinome (kinase panel) [6] = target: T6, kinome (kinase panel) (Homo sapiens, UniProt P42336, C420R); conditions: read-out: Percent Control
T6 construct: purchased Eurofins DiscoverX

kinome (kinase panel) [7] = target: T7, kinome (kinase panel) (Homo sapiens, UniProt Q13523); conditions: PRP4 (Entrez PRPF4B); 1000 nM; read-out: Percent Control
T7 construct: purchased Eurofins DiscoverX

kinome (kinase panel) [8] = target: T8, kinome (kinase panel) (Homo sapiens, UniProt P08581); conditions: MET; 1000 nM; read-out: Percent Control
T8 construct: purchased Eurofins DiscoverX

kinome (kinase panel) [9] = target: T9, kinome (kinase panel) (Homo sapiens, UniProt Q9UPE1); conditions: SRPK3; 1000 nM; read-out: Percent Control
T9 construct: purchased Eurofins DiscoverX

kinome (kinase panel) [10] = target: T10, kinome (kinase panel) (Homo sapiens, UniProt Q07912); conditions: TNK2; 1000 nM; read-out: Percent Control
T10 construct: purchased Eurofins DiscoverX

kinome (kinase panel) [11] = target: T11, kinome (kinase panel) (Homo sapiens, UniProt P16591); conditions: FER; 1000 nM; read-out: Percent Control
T11 construct: purchased Eurofins DiscoverX

kinome (kinase panel) [12] = target: T12, kinome (kinase panel) (Homo sapiens, UniProt Q02156); conditions: PRKCE; 1000 nM; read-out: Percent Control
T12 construct: purchased Eurofins DiscoverX

kinome (kinase panel) [13] = target: T13, kinome (kinase panel) (Homo sapiens, UniProt P00519, Y253F); conditions: read-out: Percent Control
T13 construct: purchased Eurofins DiscoverX

kinome (kinase panel) [14] = target: T14, kinome (kinase panel) (Homo sapiens, UniProt Q86UX6); conditions: YANK3 (STK32C); 1000 nM; read-out: Percent Control
T14 construct: purchased Eurofins DiscoverX

kinome (kinase panel) [15] = target: T15, kinome (kinase panel) (Homo sapiens, UniProt Q7L7X3); conditions: TAOK1; 1000 nM; read-out: Percent Control
T15 construct: purchased Eurofins DiscoverX

kinome (kinase panel) [16] = target: T16, kinome (kinase panel) (Homo sapiens, UniProt O96017); conditions: CHEK2; 1000 nM; read-out: Percent Control
T16 construct: purchased Eurofins DiscoverX

kinome (kinase panel) [17] = target: T17, kinome (kinase panel) (Homo sapiens, UniProt Q8NI60); conditions: ADCK3 (Entrez CABC1); 1000 nM; read-out: Percent Control
T17 construct: purchased Eurofins DiscoverX

kinome (kinase panel) [18] = target: T18, kinome (kinase panel) (Homo sapiens, UniProt O00506); conditions: YSK1 (STK25); 1000 nM; read-out: Percent Control
T18 construct: purchased Eurofins DiscoverX

kinome (kinase panel) [19] = target: T19, kinome (kinase panel) (Homo sapiens, UniProt P29322); conditions: EPHA8; 1000 nM; read-out: Percent Control
T19 construct: purchased Eurofins DiscoverX

kinome (kinase panel) [20] = target: T20, kinome (kinase panel) (Homo sapiens, UniProt O60674); conditions: JAK2(JH1domain-catalytic); 1000 nM; read-out: Percent Control
T20 construct: purchased Eurofins DiscoverX

kinome (kinase panel) [21] = target: T21, kinome (kinase panel) (Homo sapiens, UniProt P36507); conditions: MEK2 (Entrez MAP2K2); 1000 nM; read-out: Percent Control
T21 construct: purchased Eurofins DiscoverX

kinome (kinase panel) [22] = target: T22, kinome (kinase panel) (Homo sapiens, UniProt Q8IYT8); conditions: ULK2; 1000 nM; read-out: Percent Control
T22 construct: purchased Eurofins DiscoverX

kinome (kinase panel) [23] = target: T23, kinome (kinase panel) (Homo sapiens, UniProt P24941); conditions: CDK2; 1000 nM; read-out: Percent Control
T23 construct: purchased Eurofins DiscoverX

kinome (kinase panel) [24] = target: T24, kinome (kinase panel) (Homo sapiens, UniProt P30530); conditions: AXL; 1000 nM; read-out: Percent Control
T24 construct: purchased Eurofins DiscoverX

kinome (kinase panel) [25] = target: T25, kinome (kinase panel) (Homo sapiens, UniProt Q9HAZ1); conditions: CLK4; 1000 nM; read-out: Percent Control
T25 construct: purchased Eurofins DiscoverX

kinome (kinase panel) [26] = target: T26, kinome (kinase panel) (Homo sapiens, UniProt Q9BUB5); conditions: MKNK1; 1000 nM; read-out: Percent Control
T26 construct: purchased Eurofins DiscoverX

kinome (kinase panel) [27] = target: T27, kinome (kinase panel) (Homo sapiens, UniProt Q9UEW8); conditions: STK39; 1000 nM; read-out: Percent Control
T27 construct: purchased Eurofins DiscoverX

kinome (kinase panel) [28] = target: T28, kinome (kinase panel) (Homo sapiens, UniProt Q9Y2H1); conditions: NDR2 (Entrez STK38L); 1000 nM; read-out: Percent Control
T28 construct: purchased Eurofins DiscoverX

kinome (kinase panel) [29] = target: T29, kinome (kinase panel) (Homo sapiens, UniProt Q9UPZ9); conditions: ICK; 1000 nM; read-out: Percent Control
T29 construct: purchased Eurofins DiscoverX

kinome (kinase panel) [30] = target: T30, kinome (kinase panel) (Homo sapiens, UniProt Q13705); conditions: ACVR2B; 1000 nM; read-out: Percent Control
T30 construct: purchased Eurofins DiscoverX

kinome (kinase panel) [31] = target: T31, kinome (kinase panel) (Plasmodium falciparum, UniProt P62344); conditions: PFCDPK1(P.falciparum) (Entrez CDPK1); 1000 nM; read-out: Percent Control
T31 construct: purchased Eurofins DiscoverX

kinome (kinase panel) [32] = target: T32, kinome (kinase panel) (Homo sapiens, UniProt Q96PN8); conditions: TSSK3; 1000 nM; read-out: Percent Control
T32 construct: purchased Eurofins DiscoverX

T18 sequence (O00506 whole entry): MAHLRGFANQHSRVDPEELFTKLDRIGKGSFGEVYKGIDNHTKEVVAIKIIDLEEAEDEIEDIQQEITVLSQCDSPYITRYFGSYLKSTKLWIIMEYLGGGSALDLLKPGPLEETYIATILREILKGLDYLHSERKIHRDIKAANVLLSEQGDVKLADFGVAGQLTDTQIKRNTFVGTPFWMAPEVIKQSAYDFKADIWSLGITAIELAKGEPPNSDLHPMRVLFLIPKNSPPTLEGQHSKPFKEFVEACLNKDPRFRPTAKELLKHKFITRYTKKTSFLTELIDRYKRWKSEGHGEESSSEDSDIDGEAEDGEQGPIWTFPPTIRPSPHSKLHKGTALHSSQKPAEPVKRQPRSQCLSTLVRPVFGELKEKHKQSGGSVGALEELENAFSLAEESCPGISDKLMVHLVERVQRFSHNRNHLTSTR
T8 sequence (P08581 25-1390): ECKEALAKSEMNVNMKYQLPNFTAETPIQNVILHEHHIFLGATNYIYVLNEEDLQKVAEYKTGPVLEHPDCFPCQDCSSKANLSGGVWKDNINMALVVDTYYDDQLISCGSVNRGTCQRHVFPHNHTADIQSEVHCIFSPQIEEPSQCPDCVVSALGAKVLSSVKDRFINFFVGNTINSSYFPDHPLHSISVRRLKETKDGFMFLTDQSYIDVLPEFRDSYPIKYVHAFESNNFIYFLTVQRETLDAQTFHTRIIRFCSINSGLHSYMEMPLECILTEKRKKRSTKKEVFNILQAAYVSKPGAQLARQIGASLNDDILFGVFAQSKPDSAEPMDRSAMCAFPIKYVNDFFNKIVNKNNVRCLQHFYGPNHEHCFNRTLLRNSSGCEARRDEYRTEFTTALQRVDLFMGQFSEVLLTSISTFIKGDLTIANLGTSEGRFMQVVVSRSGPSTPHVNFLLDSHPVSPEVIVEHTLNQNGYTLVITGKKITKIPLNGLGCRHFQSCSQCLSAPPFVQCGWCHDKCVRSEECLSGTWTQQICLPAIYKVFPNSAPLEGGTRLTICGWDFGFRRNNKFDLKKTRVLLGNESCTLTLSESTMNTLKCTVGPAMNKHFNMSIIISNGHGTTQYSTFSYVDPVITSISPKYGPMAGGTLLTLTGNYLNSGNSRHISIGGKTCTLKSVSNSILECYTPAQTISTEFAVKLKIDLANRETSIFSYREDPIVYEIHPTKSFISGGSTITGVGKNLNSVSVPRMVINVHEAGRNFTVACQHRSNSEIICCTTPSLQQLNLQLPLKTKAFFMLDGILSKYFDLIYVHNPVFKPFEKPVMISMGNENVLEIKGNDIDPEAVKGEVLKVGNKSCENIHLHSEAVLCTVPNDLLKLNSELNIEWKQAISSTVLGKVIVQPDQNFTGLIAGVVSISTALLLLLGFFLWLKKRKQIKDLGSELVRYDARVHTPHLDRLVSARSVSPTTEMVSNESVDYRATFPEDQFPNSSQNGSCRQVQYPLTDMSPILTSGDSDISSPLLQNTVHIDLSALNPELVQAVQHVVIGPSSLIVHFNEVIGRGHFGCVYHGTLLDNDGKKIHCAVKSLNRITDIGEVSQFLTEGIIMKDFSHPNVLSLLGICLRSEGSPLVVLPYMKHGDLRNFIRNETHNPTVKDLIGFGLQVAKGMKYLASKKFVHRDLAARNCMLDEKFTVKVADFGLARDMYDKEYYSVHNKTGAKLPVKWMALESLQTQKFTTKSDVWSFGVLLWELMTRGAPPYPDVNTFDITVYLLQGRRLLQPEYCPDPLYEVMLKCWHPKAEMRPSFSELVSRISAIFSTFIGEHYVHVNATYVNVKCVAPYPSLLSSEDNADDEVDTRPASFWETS
T12 sequence (Q02156 whole entry): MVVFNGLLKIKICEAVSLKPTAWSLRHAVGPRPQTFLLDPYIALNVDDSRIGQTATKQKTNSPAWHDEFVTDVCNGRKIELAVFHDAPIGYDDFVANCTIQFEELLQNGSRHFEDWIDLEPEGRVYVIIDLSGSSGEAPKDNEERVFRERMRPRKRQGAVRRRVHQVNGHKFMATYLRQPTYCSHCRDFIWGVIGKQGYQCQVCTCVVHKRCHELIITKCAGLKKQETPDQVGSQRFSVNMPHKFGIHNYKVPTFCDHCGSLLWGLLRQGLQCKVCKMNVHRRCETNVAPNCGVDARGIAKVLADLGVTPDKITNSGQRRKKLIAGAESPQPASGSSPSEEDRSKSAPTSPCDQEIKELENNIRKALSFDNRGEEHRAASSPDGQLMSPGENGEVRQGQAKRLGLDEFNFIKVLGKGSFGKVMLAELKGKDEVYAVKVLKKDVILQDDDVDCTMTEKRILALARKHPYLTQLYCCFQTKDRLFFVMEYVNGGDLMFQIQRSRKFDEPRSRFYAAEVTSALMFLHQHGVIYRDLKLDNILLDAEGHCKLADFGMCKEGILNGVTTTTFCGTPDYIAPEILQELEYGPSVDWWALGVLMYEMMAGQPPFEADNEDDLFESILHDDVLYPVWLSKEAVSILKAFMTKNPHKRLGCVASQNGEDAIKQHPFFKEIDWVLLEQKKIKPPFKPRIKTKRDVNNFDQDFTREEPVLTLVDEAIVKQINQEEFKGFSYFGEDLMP
T16 sequence (O96017 whole entry): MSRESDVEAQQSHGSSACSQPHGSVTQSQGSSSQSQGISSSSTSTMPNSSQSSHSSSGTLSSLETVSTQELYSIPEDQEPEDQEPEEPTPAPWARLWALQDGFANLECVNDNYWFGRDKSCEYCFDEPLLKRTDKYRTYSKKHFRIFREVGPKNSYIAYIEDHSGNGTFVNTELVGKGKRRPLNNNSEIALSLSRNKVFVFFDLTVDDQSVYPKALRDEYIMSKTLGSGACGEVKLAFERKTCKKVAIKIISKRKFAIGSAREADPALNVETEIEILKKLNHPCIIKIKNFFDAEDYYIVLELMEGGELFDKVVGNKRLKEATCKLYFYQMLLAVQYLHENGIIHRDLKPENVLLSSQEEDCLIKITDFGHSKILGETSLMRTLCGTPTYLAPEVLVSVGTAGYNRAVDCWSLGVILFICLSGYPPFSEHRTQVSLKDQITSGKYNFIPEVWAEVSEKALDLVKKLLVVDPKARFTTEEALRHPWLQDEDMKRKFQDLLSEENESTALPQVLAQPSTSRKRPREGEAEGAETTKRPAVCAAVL
T11 sequence (P16591 whole entry): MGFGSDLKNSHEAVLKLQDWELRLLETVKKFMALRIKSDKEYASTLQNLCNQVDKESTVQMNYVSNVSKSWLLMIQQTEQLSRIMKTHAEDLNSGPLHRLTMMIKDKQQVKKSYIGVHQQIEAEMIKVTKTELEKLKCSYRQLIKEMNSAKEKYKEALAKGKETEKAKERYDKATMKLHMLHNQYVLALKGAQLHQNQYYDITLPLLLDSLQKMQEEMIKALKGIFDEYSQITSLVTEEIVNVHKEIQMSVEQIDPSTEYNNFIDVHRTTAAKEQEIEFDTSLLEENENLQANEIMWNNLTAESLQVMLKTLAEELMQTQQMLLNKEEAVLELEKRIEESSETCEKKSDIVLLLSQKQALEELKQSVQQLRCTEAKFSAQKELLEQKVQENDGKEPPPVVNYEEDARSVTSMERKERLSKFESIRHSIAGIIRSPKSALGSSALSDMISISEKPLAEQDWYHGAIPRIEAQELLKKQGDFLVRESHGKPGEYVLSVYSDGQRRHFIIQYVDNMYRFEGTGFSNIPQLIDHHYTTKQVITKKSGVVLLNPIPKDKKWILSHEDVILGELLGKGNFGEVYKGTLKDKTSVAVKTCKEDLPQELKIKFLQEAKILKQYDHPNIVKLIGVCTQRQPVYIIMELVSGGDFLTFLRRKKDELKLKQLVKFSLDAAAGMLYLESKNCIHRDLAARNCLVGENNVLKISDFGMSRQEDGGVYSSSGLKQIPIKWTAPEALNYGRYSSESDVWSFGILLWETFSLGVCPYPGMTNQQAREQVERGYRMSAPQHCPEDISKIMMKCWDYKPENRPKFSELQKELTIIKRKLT
T17 sequence (Q8NI60 163-647): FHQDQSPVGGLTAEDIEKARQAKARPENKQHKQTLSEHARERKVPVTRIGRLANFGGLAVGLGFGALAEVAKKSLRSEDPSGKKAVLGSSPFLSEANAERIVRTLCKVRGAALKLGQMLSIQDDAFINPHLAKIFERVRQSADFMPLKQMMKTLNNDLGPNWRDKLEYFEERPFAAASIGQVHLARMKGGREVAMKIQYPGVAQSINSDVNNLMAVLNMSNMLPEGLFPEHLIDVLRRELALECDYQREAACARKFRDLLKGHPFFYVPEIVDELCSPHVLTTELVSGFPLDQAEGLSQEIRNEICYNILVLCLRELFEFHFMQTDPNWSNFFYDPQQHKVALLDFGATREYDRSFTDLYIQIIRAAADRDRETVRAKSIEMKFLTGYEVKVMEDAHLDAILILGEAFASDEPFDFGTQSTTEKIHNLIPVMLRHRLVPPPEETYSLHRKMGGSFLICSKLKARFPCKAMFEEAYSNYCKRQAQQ
T3 sequence (Q9Y243 whole entry): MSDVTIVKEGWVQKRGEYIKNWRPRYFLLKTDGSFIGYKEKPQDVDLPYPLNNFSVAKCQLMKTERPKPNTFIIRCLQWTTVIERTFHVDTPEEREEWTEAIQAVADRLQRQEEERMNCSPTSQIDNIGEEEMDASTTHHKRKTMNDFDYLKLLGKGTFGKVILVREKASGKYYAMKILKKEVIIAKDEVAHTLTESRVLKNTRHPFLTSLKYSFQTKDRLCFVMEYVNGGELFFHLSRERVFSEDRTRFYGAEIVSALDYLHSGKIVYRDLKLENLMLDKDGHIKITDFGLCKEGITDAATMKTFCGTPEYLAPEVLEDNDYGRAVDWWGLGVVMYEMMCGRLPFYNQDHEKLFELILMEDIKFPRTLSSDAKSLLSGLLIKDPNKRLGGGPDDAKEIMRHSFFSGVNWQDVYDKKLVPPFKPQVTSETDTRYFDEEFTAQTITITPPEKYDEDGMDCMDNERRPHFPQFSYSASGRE

CN(C)C(=O)c1cc2cnc(Nc3ccc(-c4csc5c(=O)cc(N6CCOCC6)oc45)cc3)nc2n1C1CCCC1 [SRX3177]
remaining binding at 1 µM (kinome (kinase panel) [1]): 76% | remaining binding at 1 µM (kinome (kinase panel) [2]): 40% | remaining binding at 1 µM (kinome (kinase panel) [3]): 100% | remaining binding at 1 µM (kinome (kinase panel) [4]): 71% | remaining binding at 1 µM (kinome (kinase panel) [5]): 12% | remaining binding at 1 µM (kinome (kinase panel) [6]): 81% | remaining binding at 1 µM (kinome (kinase panel) [7]): 58% | remaining binding at 1 µM (kinome (kinase panel) [8]): 80% | remaining binding at 1 µM (kinome (kinase panel) [9]): 35% | remaining binding at 1 µM (kinome (kinase panel) [10]): 90% | remaining binding at 1 µM (kinome (kinase panel) [11]): 92% | remaining binding at 1 µM (kinome (kinase panel) [12]): 93% | remaining binding at 1 µM (kinome (kinase panel) [13]): 72% | remaining binding at 1 µM (kinome (kinase panel) [14]): 91% | remaining binding at 1 µM (kinome (kinase panel) [15]): 14% | remaining binding at 1 µM (kinome (kinase panel) [16]): 94% | remaining binding at 1 µM (kinome (kinase panel) [17]): 99% | remaining binding at 1 µM (kinome (kinase panel) [18]): 100% | remaining binding at 1 µM (kinome (kinase panel) [19]): 92% | remaining binding at 1 µM (kinome (kinase panel) [20]): 34% | remaining binding at 1 µM (kinome (kinase panel) [21]): 50% | remaining binding at 1 µM (kinome (kinase panel) [22]): 79% | remaining binding at 1 µM (kinome (kinase panel) [23]): 72% | remaining binding at 1 µM (kinome (kinase panel) [24]): 89% | remaining binding at 1 µM (kinome (kinase panel) [25]): 100% | remaining binding at 1 µM (kinome (kinase panel) [26]): 42% | remaining binding at 1 µM (kinome (kinase panel) [27]): 71% | remaining binding at 1 µM (kinome (kinase panel) [28]): 90% | remaining binding at 1 µM (kinome (kinase panel) [29]): 9.8% | remaining binding at 1 µM (kinome (kinase panel) [30]): 87% | remaining binding at 1 µM (kinome (kinase panel) [31]): 71% | remaining binding at 1 µM (kinome (kinase panel) [32]): 100%
